Counter-ions that a name gives are not always drawn.
Columns and labels:
[1] = moisture content by KF and pH (aq. 0.5%) of bupropion salts; format: physicochemical; conditions: salt as received
Protocol: The eight salts were first evaluated by HPLC, KF, pH and DSC for purity, water content, aqueous pH and possible polymorphs.
(§1) The salts were analyzed by DSC (at 10° C./min from 30° C. up to 400° C.) and the pH (aq. 0.5%), and the moisture content by KF were also measured. The TGA was performed on the HCl, maleate, tosylate and HBr salts.

TGA of bupropion salts = format: physicochemical; conditions: at 400° C.
Protocol: 2-5 mg of each salt was placed in an aluminium pan and covered with its lid. DSC was run for each sample at the rate of 10 degrees C./min (for HBr salt, different rates were used to investigate for polymorphs) from 30 degrees C. to 400 degrees C. TGA was also used for each of the HBr, HCl, maleate and tosylate salts.
as §1

[2] = Closed vial / closed glass bottle stability (40° C./75% RH) of bupropion salt APIs; format: physicochemical
[3] = Solubility and other physical properties, Bupropion HBr vs Bupropion HCl
[4] = 10-Days, closed glass bottle 40 C./75% RH, HBr Lot# STN07491, HCl Lot# STN06973
[5] = 10 Days, closed glass bottle 40 C./75% RH, HBr Lot# STN07492, HCl Lot# STN06978
[6] = 14-Days, closed glass bottle 40° C./75% RH, HBr Lot# STN07492, HCl L# STN06973
[7] = 24 Days, closed glass bottle 40° C./75% RH, HBr Lot# STN07492, HCl L# STN06973
[8] = 24 Days, closed glass bottle 40° C./75% RH, HBr Lot# STN07492, HCl L# STN06973, hydrochloride
[9] = Initial, closed glass bottle 40 C./75% RH, HBr Lot# STN07491, HCl Lot# STN06973
[10] = Initial, closed glass bottle 40 C./75% RH, HBr Lot# STN07492, HCl Lot# STN06978
[11] = Initial, closed glass bottle 40° C./75% RH, HBr Lot# STN07492, HCl L# STN06973
[12] = HCl from Erregierre, HBr from Chemi, hydrochloride

With Br.CC(NC(C)(C)C)C(=O)c1cccc(Cl)c1 (stereo not drawn) [bupropion hydrobromide] the “moisture content KF” value [1] was 0.00% and the “pH of the aqueous solution of 0.5%” value [1] was 5.92.

With CC(NC(C)(C)C)C(=O)c1cccc(Cl)c1 (stereo not drawn) [Bupropion HCl, bupropion hydrochloride] the “residue (TGA)” value (TGA of bupropion salts) was “minimal residues”, the “% Assay” value [2, 4] was 96.3% and the “% Impurities 3-CBZ” value [2, 4] was 0.110%. For the same compound, the “% Impurities 20U78/dilu” value [2, 4] was 0.047%, the “% Impurities 827U76” value [2, 4] was 0.045% and the “% Impurities 852U77” value [2, 4] was 0.047%. For the same compound, the “% Impurities Total unknown” value [2, 4] was 0.187%, the “% Impurities Total (%)” value ([2]; 10-Days, closed glass bottle 40 C./75% RH, HBr Lot# STN07491, HCl Lot# STN06973, hydrochloride) was 0.44% and the “% Assay” value [2, 5] was 96.5%. The “% Impurities 3-CBZ” value [2, 5] was 0.278%, the “% Impurities 20U78/dilu” value [2, 5] was 0.057% and the “% Impurities 827U76” value [2, 5] was 0.141%. For the same compound, the “% Impurities 852U77” value [2, 5] was 0.124%, the “% Impurities Total unknown” value [2, 5] was 0.137% and the “% Impurities Total (%)” value ([2]; 10 Days, closed glass bottle 40 C./75% RH, HBr Lot# STN07492, HCl Lot# STN06978, hydrochloride) was 0.74%. The “% Assay” value [2, 6] was 98.5%, the “% Impurities 3-CBZ” value [2, 6] was 0.019% and the “% Impurities 20U78/dilu” value [2, 6] was 0.038%. The “% Impurities 852U77” value [2, 6] was 0.010%, the “% Impurities Total unknown” value [2, 6] was 0.038% and the “% Impurities Total (%)” value ([2]; 14-Days, closed glass bottle 40° C./75% RH, HBr Lot# STN07492, HCl L# STN06973, hydrochloride) was 0.11%. For the same compound, the “% Assay” value [2, 7] was 98.5%, the “% Impurities 3-CBZ” value [2, 7] was 0.082% and the “% Impurities 827U76” value [2, 7] was 0.102%. The “% Impurities 852U77” value [2, 7] was 0.023%, the “% Impurities Total unknown” value [2, 7] was 0.049% and the “% Impurities 20U78/dilu” value [2, 8] was 0.040%. For the same compound, the “% Impurities Total (%)” value [2, 8] was 0.30%, the “% Assay” value [2, 9] was 99.4% and the “% Impurities 3-CBZ” value [2, 9] was 0.003%. The “% Impurities 20U78/dilu” value [2, 9] was 0.040%, the “% Impurities Total unknown” value [2, 9] was 0.053% and the “% Impurities Total (%)” value ([2]; Initial, closed glass bottle 40 C./75% RH, HBr Lot# STN07491, HCl Lot# STN06973, hydrochloride) was 0.10%. For the same compound, the “% Assay” value [2, 10] was 99.1%, the “% Impurities 3-CBZ” value [2, 10] was 0.002% and the “% Impurities 20U78/dilu” value [2, 10] was 0.04%. For the same compound, the “% Impurities Total unknown” value [2, 10] was 0.165%, the “% Impurities Total (%)” value ([2]; Initial, closed glass bottle 40 C./75% RH, HBr Lot# STN07492, HCl Lot# STN06978, hydrochloride) was 0.21% and the “% Assay” value [2, 11] was 100.4%. For the same compound, the “% Impurities 3-CBZ” value [2, 11] was 0.002%, the “% Impurities 20U78/dilu” value [2, 11] was 0.043% and the “% Impurities 852U77” value [2, 11] was 0.003%. The “% Impurities Total unknown” value [2, 11] was 0.044%, the “% Impurities Total (%)” value ([2]; Initial, closed glass bottle 40° C./75% RH, HBr Lot# STN07492, HCl L# STN06973, hydrochloride) was 0.09% and the solubility ([3]; EtOH) was 80 mg/mL. For the same compound, the “pH (aq. 0.5%)” value ([3]; HCl from Erregierre, HBr from Chemi) was 5.90, the “PS (Malvern) 10%” value [3, 12] was 10% 32 μm and the “PS (Malvern) 50%” value [3, 12] was 50% 102 μm. The “PS (Malvern) 90%” value [3, 12] was 90% 276 μm, the “moisture content KF” value [3, 12] was 0.01% and the solubility ([3]; IPA) was 10 mg/mL. It also gave a solubility ([3]; Water) of 270 mg/mL.

From patent US7645802B2 (Biovail Laboratories International SRL., priority 2005, dated 2010)
